Here are results for 28 compounds from patent US20260035340A1, “INHIBITORS OF AKR1C3 AND METHODS OF USE” (BOARD OF REGENTS OF THE UNIVERSITY OF NEBRASKA, priority 2022, published 2026).

Each structure is given as a SMILES string. Read-outs that look alike come from different tables or passages of the source.

Format in all cases: biochemical
Assay [1] addresses AKR1C4 (Homo sapiens (Human), UniProt P17516). Description: AKR enzyme inhibition assay, AKR1C4. The settings on record: Table 2; recombinant enzyme; read-out: IC50 ± SD AKR1C4.
Protocol: (§1) Assay of enzyme activity: The dehydrogenase activities of AKR1C1, AKR1C2, and AKR1C3 were determined by measuring the formation of NADH formation at 340 nm using Beckman DU640 spectrophotometer. […] After continuously monitoring for 5 min, the increase in UV absorption using different concentrations of enzyme were recorded to calculate the initial velocity and determine enzyme specific activity. IC50 value determination: The inhibitory potency for each compound was represented by IC50 value and measured as described before. […] The concentration of S-tetralol used in the assays for each AKR1C isoform was equal to the Km value for the respective enzyme so that IC50 values could be directly compared assuming a competitive pattern of inhibition. […] In this equation, “range” is the fitted uninhibited value minus the “background”, and “S” is a slope factor. “I” is the concentration of inhibitor. The equation assumes that y falls with increasing “I”.
Assay [2] deals with AKR1C3 (Homo sapiens (Human), UniProt P42330). Kind of assay: AKR enzyme inhibition assay, NADP+ dependent oxidation of S-tetralol, AKR1C3. The settings on record: for Selectivity 1C2:1C3: ratio of AKR1C2 to AKR1C3 IC50; for selectivity over AKR1C2: AKR1C3 over AKR1C2.
Sequence of AKR1C3 (P42330 whole entry): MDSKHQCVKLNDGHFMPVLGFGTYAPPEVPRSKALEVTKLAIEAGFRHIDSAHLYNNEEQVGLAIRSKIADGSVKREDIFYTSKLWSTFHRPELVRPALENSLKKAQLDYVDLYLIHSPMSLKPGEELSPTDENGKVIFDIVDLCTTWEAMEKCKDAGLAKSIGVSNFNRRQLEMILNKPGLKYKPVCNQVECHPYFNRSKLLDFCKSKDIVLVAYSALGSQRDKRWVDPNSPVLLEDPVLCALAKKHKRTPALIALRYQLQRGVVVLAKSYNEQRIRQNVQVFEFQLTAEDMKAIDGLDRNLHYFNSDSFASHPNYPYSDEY
Protocol: (§2) Structure-Activity Relationship: The ability of compounds to inhibit AKR1C3 in the first instance were determined by measuring the NADP+ dependent oxidation of S-tetralol catalyzed by recombinant enzyme as described herein. […] Assay of enzyme activity: The dehydrogenase activities of AKR1C1, AKR1C2, and AKR1C3 were determined by measuring the formation of NADH formation at 340 nm using Beckman DU640 spectrophotometer. […] After continuously monitoring for 5 min, the increase in UV absorption using different concentrations of enzyme were recorded to calculate the initial velocity and determine enzyme specific activity. IC50 value determination: The inhibitory potency for each compound was represented by IC50 value and measured as described before. […] The concentration of S-tetralol used in the assays for each AKR1C isoform was equal to the Km value for the respective enzyme so that IC50 values could be directly compared assuming a competitive pattern of inhibition. […] In this equation, “range” is the fitted uninhibited value minus the “background”, and “S” is a slope factor. “I” is the concentration of inhibitor. The equation assumes that y falls with increasing “I”.
Assay [3] deals with AKR1C2 (Homo sapiens (Human), UniProt P52895). Kind of assay: AKR enzyme inhibition assay, NADP+ dependent oxidation of S-tetralol, AKR1C2 counter-screen.
Sequence of AKR1C2 (P52895 whole entry): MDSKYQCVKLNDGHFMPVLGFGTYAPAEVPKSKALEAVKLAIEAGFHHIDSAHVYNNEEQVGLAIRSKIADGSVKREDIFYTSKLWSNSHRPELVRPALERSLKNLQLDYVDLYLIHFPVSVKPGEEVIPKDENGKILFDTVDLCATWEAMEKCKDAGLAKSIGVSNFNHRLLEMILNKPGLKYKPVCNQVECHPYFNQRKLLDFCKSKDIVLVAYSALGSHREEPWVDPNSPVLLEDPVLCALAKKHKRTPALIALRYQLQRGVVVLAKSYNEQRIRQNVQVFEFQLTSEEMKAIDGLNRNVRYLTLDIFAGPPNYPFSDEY
Protocol: as §2
The target of assay [4] is AKR1C1 (Homo sapiens (Human), UniProt Q04828). Description: AKR enzyme inhibition assay, NADP+ dependent oxidation of S-tetralol, AKR1C1. The settings on record: Table 2; recombinant enzyme, S-tetralol at Km; read-out: IC50 ± SD AKR1C1.
Sequence of AKR1C1 (Q04828 whole entry): as the sequence (P52895 whole entry) above, with V38T, H47R, V54L, S87C, M151V, H170R, L172Q counted along it
Protocol: as §1
[5] abbreviates: Table 2, recombinant enzyme, S-tetralol at Km, read-out: IC50 ± SD AKR1C3.
Where [6] appears, read: Table 2, recombinant enzyme, S-tetralol at Km, read-out: IC50 ± SD AKR1C2.
[7] abbreviates: Table 3, compounds of formula (A4), read-out: IC50 AKR1C3.
[8] abbreviates: Table 4, compounds of formula (A3), read-out: IC50 AKR1C3.

As usually defined, the IC50 is the point on the concentration scale where inhibition reaches its midpoint.

Sequence of AKR1C4 (P17516 whole entry): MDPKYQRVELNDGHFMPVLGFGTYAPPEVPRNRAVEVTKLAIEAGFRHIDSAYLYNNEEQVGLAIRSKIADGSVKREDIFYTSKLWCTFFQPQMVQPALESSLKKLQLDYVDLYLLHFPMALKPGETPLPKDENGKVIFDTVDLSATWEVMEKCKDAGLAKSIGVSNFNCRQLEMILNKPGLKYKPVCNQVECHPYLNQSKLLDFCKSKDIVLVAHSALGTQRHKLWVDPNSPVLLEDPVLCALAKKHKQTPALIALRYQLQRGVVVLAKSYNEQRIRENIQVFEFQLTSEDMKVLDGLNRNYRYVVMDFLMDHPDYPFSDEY

As for `CC(C)=CCOc1cc(/C=C/C(=O)O)cc(C(=O)NCc2ccc(C)cc2)c1` [Compound 10, (E)-3-(3-((4-Methylbenzyl)carbamoyl)-5-((3-methylbut-2-en-1-yl)oxy)phenyl)acrylic acid], the IC50 in assay [1] worked out at 31000 ± 5000 nM; in assay [2] (setting [5]) it was 80 ± 10 nM; in assay [3] (setting [6]), 15000 ± 2400 nM; in assay [4] it was 52000 ± 7000 nM. For the same compound, the “Selectivity 1C2:1C3” value in assay [2] (Table 2) came out at 187.

Turning to `CC(C)=CCc1cc(/C=C/C#N)cc(C(=O)NCc2ccc(C)cc2)c1` [Compound 16b, (E)-3-(2-Cyanovinyl)-N-(4-methylbenzyl)-5-(3-methylbut-2-en-1-yl)benzamide], the IC50 in assay [2] (setting [7]) worked out at 2700 ± 370 nM; in assay [2] (read-out: IC50 AKR1C3), 2700 nM.

Turning to `Cc1ccc(CNC(=O)c2cc(C#Cc3ccccc3)cc(/C=C/C(=O)O)c2)cc1` [Compound A1-w, (E)-3-(3-((4-methylbenzyl)carbamoyl)-5-(phenylethynyl)phenyl)acrylic acid], the “selectivity over AKR1C2” value in assay [2] was 61 fold. Besides, the IC50 in assay [2] (setting [5]) was found to be 180 ± 19 nM; in assay [3] (setting [6]), 11000 ± 3100 nM.

On to `Cc1ccc(CNC(=O)c2cc(/C=C/C(=O)O)cc(-c3ccc(F)cc3)c2)cc1` [Compound A1-d, (E)-3-(4′-Fluoro-5-((4-methylbenzyl)carbamoyl)-[1,1′-biphenyl]-3-yl)acrylic acid], for which the IC50 in assay [1] was 8000 ± 1200 nM; in assay [2] (read-out: IC50 AKR1C3), 60 nM; in assay [3] (setting [6]) it was 36000 ± 4000 nM; in assay [4], > 100000 nM. Moreover, the “Selectivity 1C2:1C3” value in assay [2] (Table 2) is on record as 600.

As to `Cc1ccc(CNC(=O)c2cc(/C=C/C(=O)O)cc(-c3ccc4cccnc4c3)c2)cc1` [Compound A1-p, (E)-3-(3-((4-Methylbenzyl)carbamoyl)-5-(quinolin-7-yl)phenyl)acrylic acid], the IC50 in assay [1] came to 22000 ± 2300 nM; in assay [2] (setting [5]) it was 110 ± 17 nM; in assay [3] (setting [6]), 12000 ± 2800 nM; in assay [4] it was 80000 ± 13000 nM. For the same compound, the “Selectivity 1C2:1C3” value in assay [2] (Table 2) turned out to be 109.

Turning to `Cc1ccc(CNC(=O)c2cc(/C=C/C(=O)O)cc(-c3ccc(C)cc3)c2)cc1` [Compound A1-i, (E)-3-(4′-Methyl-5-((4-methylbenzyl)carbamoyl)-[1,1′-biphenyl]-3-yl)acrylic acid], the IC50 is 10000 ± 1720 nM in assay [1], 100 ± 8 nM in assay [2] (setting [5]), 16000 ± 3900 nM in assay [3] (setting [6]) and 66000 ± 17000 nM in assay [4]. Besides, in assay [2] (Table 2), the “Selectivity 1C2:1C3” value is recorded as 160.

For `Cc1ccc(CNC(=O)c2cc(/C=C/C(=O)O)cc(-c3ccccc3)c2)cc1` [Compound A1-a, (E)-3-(5-((4-Methylbenzyl)carbamoyl)-[1,1′-biphenyl]-3-yl)acrylic acid], the IC50 is 21000 ± 2500 nM in assay [1], 40 nM in assay [2] (read-out: IC50 AKR1C3), > 100000 nM in assay [3] (setting [6]) and > 100000 nM in assay [4]. Further, the “selectivity over AKR1C2” value in assay [2] is reported as > 2320 fold. The “Selectivity 1C2:1C3” value in assay [2] (Table 2) was >2500.

Regarding `Cc1ccc(CNC(=O)c2cc(/C=C/C(=O)O)cc(-c3ccc4nccnc4c3)c2)cc1` [Compound A1-q, (E)-3-(3-((4-Methylbenzyl)carbamoyl)-5-(quinoxalin-6-yl)phenyl)acrylic acid], the IC50 in assay [1] stood at 31000 ± 2900 nM; in assay [2] (read-out: IC50 AKR1C3) it was 94 nM; in assay [3] (setting [6]), 12500 ± 2100 nM; in assay [4], 70000 ± 48000 nM. Moreover, the “Selectivity 1C2:1C3” value in assay [2] (Table 2) is 133.

Turning to `Cc1ccc(CNC(=O)c2cc(Br)cc(/C=C/C(N)=O)c2)cc1` [Compound 12, (E)-3-(3-Amino-3-oxoprop-1-en-1-yl)-5-bromo-N-(4-methylbenzyl)benzamide], in assay [2] (setting [7]), the IC50 was 28000 ± 2900 nM.

Turning to `Cc1ccc(CNC(=O)c2cc(/C=C/C(=O)O)cc(-c3ccc(-c4ccccc4)cc3)c2)cc1` [Compound A1-u, (E)-3-(5-((4-Methylbenzyl)carbamoyl)-[1,1′:4′,1″-terphenyl]-3-yl)acrylic acid], the IC50 in assay [1] is 2400 ± 150 nM; in assay [2] (setting [5]) it was 50 ± 4 nM; in assay [3] (setting [6]), 29000 ± 4800 nM. Moreover, the “Selectivity 1C2:1C3” value in assay [2] (Table 2) was found to be 580.

As to `CC[C@@H](NC(=O)c1cc(/C=C/C(=O)O)cc(-c2ccc(Oc3ccccc3)cc2)c1)c1ccccc1` [Compound 20b, (R,E)-3-(4′-Phenoxy-5-((1-phenylpropyl)carbamoyl)-[1,1′-biphenyl]-3-yl)acrylic acid], the IC50 in assay [2] (setting [8]) is 260 ± 16.6 nM.

For `Cc1ccc(CNC(=O)c2cc(/C=C/C#N)cc(-c3ccc(Oc4ccccc4)cc3)c2)cc1` [Compound 16a, (E)-5-(2-Cyanovinyl)-N-(4-methylbenzyl)-4′-phenoxy-[1,1′-biphenyl]-3-carboxamide], the IC50 in assay [2] (setting [7]) is 1400 ± 300 nM; in assay [2] (read-out: IC50 AKR1C3), 1400 nM.

As to `Cc1ccc(CNC(=O)c2cc(/C=C/C(N)=O)cc(-c3ccc(Oc4ccccc4)cc3)c2)cc1` [Compound 13, (E)-5-(3-Amino-3-oxoprop-1-en-1-yl)-N-(4-methylbenzyl)-4′-phenoxy-[1,1′-biphenyl]-3-carboxamide], in assay [2] (read-out: IC50 AKR1C3), the IC50 is 2700 nM.

On to `Cc1ccc(CNC(=O)c2cc(Br)cc(/C=C/C#N)c2)cc1` [Compound 15, (E)-3-Bromo-5-(2-cyanovinyl)-N-(4-methylbenzyl)benzamide], for which, in assay [2] (read-out: IC50 AKR1C3), the IC50 was determined as 170 nM.

For the compound `COC(=O)/C=C/c1cc(Br)cc(C(=O)NCc2ccc(C)cc2)c1` [Compound 3], the IC50 in assay [2] (read-out: IC50 AKR1C3) amounted to 200 nM.

For `COc1ccc(-c2cc(/C=C/C(=O)O)cc(C(=O)NCc3ccc(C)cc3)c2)cc1` [Compound A1-l, (E)-3-(4′-Methoxy-5-((4-methylbenzyl)carbamoyl)-[1,1′-biphenyl]-3-yl)acrylic acid], the IC50 in assay [2] (setting [5]) is 170 ± 30 nM.

For the compound `Cc1ccc(CNC(=O)c2cc(/C=C/C(=O)O)cc(-c3ccc(CN4CCOCC4)c(F)c3)c2)cc1` [Compound A1-y, (E)-3-(3′-Fluoro-5-((4-methylbenzyl)carbamoyl)-4′-(morpholinomethyl)-[1,1′-biphenyl]-3-yl)acrylic acid], the “selectivity over AKR1C2” value in assay [2] came to 16 fold. The IC50 in assay [2] (read-out: IC50 AKR1C3) is 330 nM; in assay [3] (setting [6]), 5100 ± 600 nM.

On to `Cc1ccc(CNC(=O)c2cc(/C=C/C(=O)O)cc(CC(C)c3ccccc3)c2)cc1` (centres unmarked) [Compound A1-x, (E)-3-(3-((4-Methylbenzyl)carbamoyl)-5-(2-phenylpropyl)phenyl)acrylic acid], for which the “selectivity over AKR1C2” value in assay [2] worked out at 177 fold. In addition, the IC50 in assay [2] (read-out: IC50 AKR1C3) is 880 nM; in assay [3] (setting [6]) it was 156000 ± 71000 nM.

With `Cc1ccc(CNC(=O)c2cc(Br)cc(/C=C/C(=O)N(C)C)c2)cc1` [Compound 14, (E)-3-Bromo-5-(3-(dimethylamino)-3-oxoprop-1-en-1-yl)-N-(4-methylbenzyl)benzamide], the “increased activity over terminal primary amide 12” value in assay [2] (AKR1C3 inhibition) is recorded as > 66 fold. In addition, the IC50 in assay [2] (read-out: IC50 AKR1C3) was 400 nM.

As to `CC[C@@H](NC(=O)c1cc(/C=C/C(=O)O)cc(-c2ccc(C(C)C)cc2)c1)c1ccccc1` [Compound 20a, (R,E)-3-(4′-Isopropyl-5-((1-phenylpropyl)carbamoyl)-[1,1′-biphenyl]-3-yl)acrylic acid], the concentration for half-maximal inhibition (IC50) in assay [2] (setting [8]) was 120 ± 14 nM; in assay [3] (Table 4, compounds of formula (A3), read-out: IC50 AKR1C2) it was 6000 ± 1400 nM. Also, the “Selectivity 1C2:1C3” value in assay [2] (Table 4) worked out at 51.

Turning to `Cc1ccc(CNC(=O)c2cc(/C=C/C(=O)O)cc(-c3ccc(C#N)cc3)c2)cc1` [Compound A1-m, (E)-3-(4′-Cyano-5-((4-methylbenzyl)carbamoyl)-[1,1′-biphenyl]-3-yl)acrylic acid], in assay [2] (setting [5]), the IC50 amounted to 170 ± 10 nM.

Take `Cc1ccc(CNC(=O)c2cc(/C=C/C(=O)O)cc(-c3ccc(Oc4ccccc4)cc3)c2)cc1` [Compound A1-n, (E)-3-(5-((4-Methylbenzyl)carbamoyl)-4′-phenoxy-[1,1′-biphenyl]-3-yl)acrylic acid]: the “selectivity over AKR1C2” value in assay [2] amounted to 51 fold. The IC50 in assay [2] (setting [5]) was found to be 94 ± 10 nM; in assay [3] (setting [6]), 4800 ± 1200 nM.

On to `CCc1ccc(-c2cc(/C=C/C(=O)O)cc(C(=O)NCc3ccc(C)cc3)c2)cc1` [Compound A1-j, (E)-3-(4′-Ethyl-5-((4-methylbenzyl)carbamoyl)-[1,1′-biphenyl]-3-yl)acrylic acid], for which the IC50 in assay [2] (setting [5]) was found to be 190 ± 10 nM.

Consider `Cc1ccc(CNC(=O)c2cc(/C=C/C(=O)O)cc(-c3ccc(C(C)C)cc3)c2)cc1` [Compound A1-k, (E)-3-(4′-Isopropyl-5-((4-methylbenzyl)carbamoyl)-[1,1′-biphenyl]-3-yl)acrylic acid], for which, in assay [2] (read-out: IC50 AKR1C3), the IC50 was determined as 190 nM.

As to `Cc1ccc(CNC(=O)c2cc(Br)cc(/C=C/C(=O)O)c2)cc1` [Compound 11, (E)-3-(3-Bromo-5-((4-methylbenzyl)carbamoyl)phenyl)acrylic acid], the figures for the IC50 in assay [1], in assay [2] (setting [5]) and in assay [3] (setting [6]) were 40000 ± 1300 nM, 300 ± 10 nM and > 100000 nM, respectively. Moreover, in assay [2] (Table 2), the “Selectivity 1C2:1C3” value is >333.

Regarding `Cc1ccc(CNC(=O)c2cc(C#CC3CC3)cc(/C=C/C(=O)O)c2)cc1` [Compound A1-bb, (E)-3-(3-(Cyclopropylethynyl)-5-((4-methylbenzyl)carbamoyl)phenyl)acrylic acid], the “selectivity over AKR1C2” value in assay [2] was found to be 74 fold. The results for the IC50 in assay [2] (setting [5]) and in assay [3] (setting [6]) were 500 ± 40 nM and 37000 ± 9600 nM, respectively.

Consider `Cc1ccc(CNC(=O)c2cc(/C=C/C(=O)O)cc(-c3ccc(C(F)(F)F)cc3)c2)cc1` [Compound A1-h, (E)-3-(5-((4-Methylbenzyl)carbamoyl)-4′-(trifluoromethyl)-[1,1′-biphenyl]-3-yl)acrylic acid], for which, in assay [2] (setting [5]), the concentration for half-maximal inhibition (IC50) came to 200 ± 20 nM.

In the case of `Cc1ccc(CNC(=O)c2cc(/C=C/C(=O)O)cc(-c3ccc(F)cc3F)c2)cc1` [Compound A1-g, (E)-3-(2′,4′-Difluoro-5-((4-methylbenzyl)carbamoyl)-[1,1′-biphenyl]-3-yl)acrylic acid], the IC50 in assay [2] (read-out: IC50 AKR1C3) turned out to be 130 nM.
